The source of these data is ChEMBL document CHEMBL1201862, “PubChem BioAssay data set” (2004).

Among the test systems are UACC-62; HOP-62; NCI/ADR-RES; ACHN; SF-295; U-251; M14; MOLT-4; CCRF-CEM; TK-10; CAKI-1; RXF 393; EKVX; SF-539; NCI-H522; HL-60; MDA-MB-231; SF-268; UO-31; BT-549.
What all share (test): NCI anticancer screen, dose series, 48 h

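Values below derive from 48-hour exposures of cells grown in 96-well plates, with endpoints linearly interpolated between the two concentrations bracketing the appropriate inhibition level. Abbreviation: GI50, concentration required for 50% inhibition of growth.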 Activity calls are given as the source filed them. Rule as the data show it: active = GI50 up to about 1.1 µM and inactive = higher.

Regarding `O=C1NC2C(=CC(O)C(O)C2O)c2cc3c(cc21)OCO3` (stereo not given), the GI50 in the assay with UACC-62 was 0.421 µM (active); with HOP-62 it was 0.463 µM (active); in the assay on NCI/ADR-RES, 0.621 µM (active); in the assay with ACHN, 0.144 µM (active); with SF-295, 0.582 µM (active); in the assay with U-251, 0.218 µM (active). Also, the GI50 is 0.244 µM (active) in the assay on M14; 0.109 µM (active) in the assay with MOLT-4; 0.206 µM (active) in the assay on CCRF-CEM; 0.418 µM (active) with TK-10; 0.28 µM (active) with CAKI-1; 0.154 µM (active) with RXF 393. In addition, the GI50 is 0.412 µM (active) in the assay on EKVX; 0.458 µM (active) in the assay on SF-539; 0.244 µM (active) in the assay on NCI-H522; 0.108 µM (active) with HL-60; 0.0486 µM (active) in the assay on MDA-MB-231; 0.171 µM (active) in the assay with SF-268. The GI50 in the assay with UO-31 was 0.564 µM (active).
As for `CCN(CC)CCCNc1[nH]c2ccccc2c2nc3ccc(OC)cc3c1-2`, the GI50 is 4.68 µM (inactive) in the assay with UACC-62; 1.43 µM (inactive) in the assay with HOP-62; 1.27 µM (inactive) in the assay with NCI/ADR-RES; 4.27 µM (inactive) in the assay with ACHN; 1.17 µM (inactive) in the assay on SF-295; 1.77 µM (inactive) in the assay with U-251. In addition, the GI50 is 1.71 µM (inactive) in the assay on M14; 0.279 µM (active) with MOLT-4; 0.61 µM (active) in the assay on CCRF-CEM; 2.31 µM (inactive) in the assay on TK-10; 2.71 µM (inactive) in the assay on CAKI-1; 1.59 µM (inactive) in the assay on RXF 393. For the same compound, the GI50 in the assay on EKVX is 1.71 µM (inactive); in the assay on SF-539, 2.16 µM (inactive); in the assay with NCI-H522 it was 1.46 µM (inactive); in the assay with HL-60, 1.21 µM (inactive); in the assay with MDA-MB-231, 1.54 µM (inactive); in the assay with SF-268, 1.77 µM (inactive). Moreover, the GI50 in the assay on UO-31 is 4.01 µM (inactive).
With `COc1cc(NCc2ccc3oc(=O)c(-c4ccccc4)nc3c2)cc(OC)c1OC`, the GI50 in the assay with UACC-62, in the assay on HOP-62, with NCI/ADR-RES, in the assay on ACHN, in the assay with SF-295 and with U-251 was > 10 µM (inactive) in each case. Besides, the GI50 in the assay on M14, in the assay with MOLT-4, in the assay with CCRF-CEM, in the assay with TK-10, with CAKI-1 and with RXF 393 was > 10 µM (inactive) each time. For the same compound, the GI50 in the assay with EKVX, with SF-539, in the assay on NCI-H522, in the assay on HL-60, with MDA-MB-231 and in the assay on SF-268 was > 10 µM (inactive) throughout. For the same compound, in the assay with UO-31, the GI50 was > 10 µM (inactive).
As for `Cc1c(/N=N/c2ccc(Cl)cc2)c(C)n(C2OC(CO)C(O)C(O)C2O)c(=S)c1C#N` (stereo not given), the GI50 with UACC-62 was 3.25 µM (inactive); with HOP-62, 18.1 µM (inactive); in the assay on NCI/ADR-RES it was 19 µM (inactive); with ACHN, 19.6 µM (inactive); in the assay with SF-295 it was 31.8 µM (inactive); with U-251 it was 18.2 µM (inactive). Moreover, the GI50 was 20 µM (inactive) with M14; 13.9 µM (inactive) in the assay on MOLT-4; 18.5 µM (inactive) with CCRF-CEM; 28.6 µM (inactive) in the assay on TK-10; 64.1 µM (inactive) in the assay with CAKI-1; 31.1 µM (inactive) in the assay with RXF 393. For the same compound, the GI50 was 21.8 µM (inactive) with EKVX; 20.4 µM (inactive) in the assay with SF-539; 20 µM (inactive) with NCI-H522; 22.1 µM (inactive) in the assay with HL-60; 18.4 µM (inactive) with MDA-MB-231; 16 µM (inactive) in the assay on SF-268. Also, the GI50 in the assay on UO-31 is 23.4 µM (inactive).
In the case of `Cc1ccc(/C=N/Nc2nc3ccccc3s2)s1`, the GI50 was 74.6 µM (inactive) with UACC-62; 26.2 µM (inactive) in the assay with HOP-62; > 100 µM (inactive) in the assay with NCI/ADR-RES; > 100 µM (inactive) in the assay with ACHN; 40.9 µM (inactive) in the assay with SF-295; 81.1 µM (inactive) in the assay on U-251. The GI50 with M14 was > 100 µM (inactive); in the assay with MOLT-4 it was > 100 µM (inactive); with CCRF-CEM it was > 100 µM (inactive); in the assay on TK-10 it was 69.2 µM (inactive); in the assay on CAKI-1 it was 79.3 µM (inactive); in the assay with RXF 393, 82.6 µM (inactive). The GI50 in the assay with EKVX was 50.7 µM (inactive); in the assay on SF-539, 91.8 µM (inactive); in the assay on NCI-H522, > 100 µM (inactive); in the assay with HL-60, > 100 µM (inactive); in the assay on MDA-MB-231 it was 24.7 µM (inactive); in the assay on SF-268, 49.8 µM (inactive). In the assay with UO-31, the GI50 is 51.6 µM (inactive).
With `COCCCNC(=O)C1=C(C)NC(C)=C(C(=O)NCCCOC)C1`, the GI50 in the assay on UACC-62, in the assay with HOP-62, in the assay on NCI/ADR-RES, in the assay with ACHN, in the assay with SF-295 and in the assay with U-251 was > 100 µM (inactive) in each case. The GI50 in the assay on M14, in the assay with MOLT-4, in the assay with CCRF-CEM, in the assay with TK-10, with CAKI-1 and in the assay with RXF 393 was > 100 µM (inactive) in each case. For the same compound, the GI50 was 18.6 µM (inactive) with EKVX; > 100 µM (inactive) in the assay with SF-539; 9.23 µM (inactive) in the assay on NCI-H522; > 100 µM (inactive) in the assay with HL-60; > 100 µM (inactive) in the assay on MDA-MB-231; > 100 µM (inactive) in the assay on SF-268. Moreover, the GI50 in the assay on UO-31 is 71.4 µM (inactive).
`CCCNC(=O)Cn1c(C)cc2ccccc21`: the GI50 is > 100 µM (inactive) in the assay on UACC-62; > 100 µM (inactive) in the assay on BT-549; > 100 µM (inactive) with HOP-62; > 100 µM (inactive) with NCI/ADR-RES; > 100 µM (inactive) with ACHN; > 10 µM (inactive) with SF-295. For the same compound, the GI50 with U-251, in the assay with M14, in the assay on MOLT-4, with CCRF-CEM, with TK-10 and in the assay with CAKI-1 was > 100 µM (inactive) in each case. In addition, the GI50 in the assay with RXF 393, in the assay on EKVX, in the assay on SF-539, in the assay on NCI-H522, with HL-60 and in the assay with SF-268 was > 100 µM (inactive) throughout. The GI50 in the assay on UO-31 is > 100 µM (inactive).
As for `Cc1nc2ccccc2c(-n2cccn2)c1CCn1cccn1`, the GI50 was 80.2 µM (inactive) in the assay on UACC-62; > 100 µM (inactive) with HOP-62; > 100 µM (inactive) with NCI/ADR-RES; 80.7 µM (inactive) in the assay on ACHN; > 100 µM (inactive) in the assay with SF-295; > 100 µM (inactive) with U-251. For the same compound, the GI50 was > 100 µM (inactive) in the assay with M14; 39.4 µM (inactive) in the assay with MOLT-4; 66.1 µM (inactive) with CCRF-CEM; > 100 µM (inactive) in the assay on TK-10; > 100 µM (inactive) in the assay with CAKI-1; > 100 µM (inactive) with RXF 393. Also, the GI50 in the assay on EKVX is > 100 µM (inactive); in the assay with SF-539, > 100 µM (inactive); with NCI-H522, > 100 µM (inactive); in the assay on HL-60, > 100 µM (inactive); in the assay with MDA-MB-231 it was 51.4 µM (inactive); in the assay on SF-268, > 100 µM (inactive). Also, in the assay on UO-31, the GI50 is 1.77 µM (inactive).
As to `CC(=O)C(=[N+]=[N-])C(=O)OCCOC(=O)C(=[N+]=[N-])C(C)=O`, the GI50 in the assay with UACC-62, with BT-549, in the assay with HOP-62, in the assay with ACHN, in the assay with SF-295 and in the assay with U-251 was > 1 µM (active) in each case. The GI50 in the assay with M14, with MOLT-4, in the assay on CCRF-CEM, in the assay on TK-10, in the assay on RXF 393 and with EKVX was > 1 µM (active) throughout. The GI50 in the assay with SF-539, in the assay on HL-60, with MDA-MB-231, with SF-268 and in the assay with UO-31 was > 1 µM (active) throughout.
`[N-]=[N+]=C1N=CN=C1c1nc[nH]n1`: the GI50 is 16.6 µM (inactive) in the assay with UACC-62; 35.7 µM (inactive) in the assay with HOP-62; 22.1 µM (inactive) in the assay with NCI/ADR-RES; 39 µM (inactive) with ACHN; 82.4 µM (inactive) in the assay with SF-295; 27 µM (inactive) in the assay with U-251. Besides, the GI50 with M14 is 40.6 µM (inactive); in the assay with MOLT-4, 6.27 µM (inactive); with CCRF-CEM, 3.98 µM (inactive); in the assay with TK-10, 51.2 µM (inactive); in the assay with CAKI-1, 6.31 µM (inactive); with RXF 393, 48.8 µM (inactive). Also, the GI50 with EKVX is 40 µM (inactive); with SF-539, 15.3 µM (inactive); with NCI-H522, 30.7 µM (inactive); with HL-60, 5.83 µM (inactive); with MDA-MB-231, 29 µM (inactive); in the assay with UO-31, 19.6 µM (inactive).
`OC1CN=C2c3ccccc3C(O)(c3ccc(Cl)cc3)N2C1` (stereo not given): the GI50 in the assay with UACC-62 is 45.4 µM (inactive); in the assay on HOP-62 it was 55.5 µM (inactive); in the assay with NCI/ADR-RES, > 100 µM (inactive); with ACHN, > 100 µM (inactive); in the assay on U-251, 66.7 µM (inactive); in the assay with M14 it was 14.8 µM (inactive). The GI50 in the assay with MOLT-4 was 31 µM (inactive); in the assay with CCRF-CEM, 36.7 µM (inactive); in the assay with TK-10, 20.2 µM (inactive); with CAKI-1, > 100 µM (inactive); in the assay on RXF 393, 50 µM (inactive); in the assay with EKVX, > 100 µM (inactive). In addition, the GI50 with SF-539 is 32.2 µM (inactive); in the assay with NCI-H522, 26.2 µM (inactive); in the assay with HL-60, 44.4 µM (inactive); with MDA-MB-231 it was 57.8 µM (inactive); with SF-268 it was 32 µM (inactive); in the assay on UO-31, 37.4 µM (inactive).
